Structures can show the parent of a compound that is named as a salt.
What was measured:
[1] = test system: CT26 (KRAS^mut, non-MSI^high) colorectal cancer; experiment: Anti-tumor efficacy in CT26 colorectal cancer syngeneic mouse model; assay type: in vivo; conditions: monotherapy
Method: (§1) A20 diffuse large B cell lymphoma and CT26 colorectal cancer cells were maintained in vitro in cell cultural medium supplemented with serum (according to the instructions for each corresponding cell lines) at 37° C. in an atmosphere of 5% CO2 in air. The tumor cells were routinely subcultured twice weekly. The cells in an exponential growth phase were harvested and counted for tumor inoculation. To investigate anti-tumor efficacy and mechanisms of action in vivo, each mouse was inoculated subcutaneously at the right lower flank region with tumor cells (1×10^5−2×10^6 depending on the cell lines) in 0.1 ml of PBS with or without metrigel for tumor development. Before commencement of treatment, all animals were weighed and the tumor volumes were measured using a caliper. […]
(§2) Tumor volumes were measured 2-3 times weekly in two dimensions using a caliper, and the volume was expressed in mm^3 using the formula: V=0.5 a×b2 where a and b are the long and short diameters of the tumor, respectively. Tumor weight was measured at study termination. […]
Therefore, the anti-tumor activity of Compound A and Compound B was assessed in the mouse syngeneic CT26 (KRAS^mut, non-MSI^high) colorectal cancer xenograft model as single agent and in combination. […]

[2] = test system: A20 diffuse large B cell lymphoma; experiment: Anti-tumor efficacy in A20 DLBCL syngeneic mouse model; assay type: in vivo; conditions: monotherapy; Cpd A 14 mg/kg i.v., Cpd B 200 μg/mouse i.v.; female BALB/c mice; vs vehicle control group
Method: as §1, §2
The anti-tumor activity of Compound A and Compound B was assessed firstly in an immune-checkpoint blocker resistant DLBCL syngeneic A20 xenograft mouse model as single agent and in combination. […] Body weights and tumor size were measured three times per week. […] The tolerability was assessed by body weight change. […]

[3] = test system: regulatory T cells (Treg); experiment: Analysis of regulatory T cells (Treg) and CD8+ T cells in tumor, spleen and thymus of the A20 model; assay type: in vivo, mouse
Method: Sampling procedures: organ and tumor tissues were quickly removed and weighted 3 h post the final dose for FACS, IHC (FFPE), and RNA/pretein expression analysis.
The anti-tumor activity of Compound A and Compound B was assessed firstly in an immune-checkpoint blocker resistant DLBCL syngeneic A20 xenograft mouse model as single agent and in combination. A20 cells were inoculated subcutaneously at the right flank of female BALB/c mice for tumor development. The treatment was started when the average tumor size reached about 116 mm^3. Mice were allocated randomly into experimental groups according to their tumor sizes and being treated from day 12 after tumor cell inoculation. Cpd A was dosed at 14 mg/kg and Cpd B at 200 μg/mouse intravenously with the schedule indicated in FIG. 1 A. Treatment groups were: control antibody (ctrl Ab), vehicle control (vehicle), compound A monotherapy (Cpd. A), Cpd. B monotherapy, 3 combination groups with different dosing schedules. Body weights and tumor size were measured three times per week. Tumor growth curve (FIG. 1B), tumor weight at the end of treatment (FIG. 1C) and tumor response (FIG. 1D) were used as anti-tumor activity endpoints. The tolerability was assessed by body weight change. […]

COc1c(OCCCN2CCOCC2)ccc2c1N=C(NC(=O)c1cnc(N)nc1)N1CCN=C21 [Cpd A, 2-amino-N-[7-methoxy-8-(3-morpholin-4-ylpropoxy)-2,3-dihydroimidazo[1,2-c]quinazolin-5-yl]pyrimidine-5-carboxamide dihydrochloride]
TGI [1]: 71% | relative tumor growth inhibition (TGI %) [2]: 78% | effect on Treg in thymus and spleen ([3]; A20 model, thymus and spleen): minimal or no effects | effect on Treg population in tumors ([3]; A20 tumors, Treg among CD4+ T cells): specifically reduce the Treg population in tumors

From patent US11684672B2, “Combinations of copanlisib with anti-PD-1 antibody” (BAYER PHARMA AKTIENGESELLSCHAFT, priority 2017, dated 2023)
